This is an account of results in article PMC2578980 (The Yale Journal of Biology and Medicine, 1998).

The target in experiment [1] is T1, human CCK-BR (Homo sapiens, UniProt P32239).
T1 sequence (P32239 1-447): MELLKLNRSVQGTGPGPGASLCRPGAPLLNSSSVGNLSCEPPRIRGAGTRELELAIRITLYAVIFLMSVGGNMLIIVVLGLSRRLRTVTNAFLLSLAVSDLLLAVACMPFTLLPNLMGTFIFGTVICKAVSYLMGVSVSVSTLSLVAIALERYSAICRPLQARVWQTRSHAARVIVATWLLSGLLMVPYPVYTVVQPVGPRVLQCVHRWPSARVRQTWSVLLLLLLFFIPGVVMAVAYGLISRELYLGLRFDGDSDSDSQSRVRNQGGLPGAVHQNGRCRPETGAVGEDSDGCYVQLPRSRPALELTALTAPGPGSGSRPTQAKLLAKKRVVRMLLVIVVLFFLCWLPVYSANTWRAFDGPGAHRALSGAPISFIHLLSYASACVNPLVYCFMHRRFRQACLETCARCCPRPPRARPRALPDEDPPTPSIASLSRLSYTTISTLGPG
The experiment is described as follows: Inositol phosphate accumulation. In kind it is cell-based. Conditions: for effect on inositol phosphate production (intrinsic activity): high concentrations of non-peptide ligands.

Experiment [2] addresses T1, human CCK-BR. The following applies: human CCK-BR expressed in CHO instead of COS-7 cells; cited from earlier work.
The next experiment has as its system gastric acid secretion. Conditions: cited from earlier work.
Experiment [3] concerns the target T1, human CCK-BR.

For the compound `Cc1cccc(NC(=O)N[C@@H]2N=C(c3ccccc3)c3ccccc3N(C)C2=O)c1` [L-365,260], on human CCK-BR [1], the “effect on inositol phosphate production (intrinsic activity)” value is recorded as “little, if any, effect”.
For `CC1(C)[C@H]2CC[C@@]1(C)[C@H](OC(=O)N[C@](C)(Cc1c[nH]c3ccccc13)C(=O)NC[C@H](NC(=O)CCC(=O)O)c1ccccc1)C2` [PD 135,158], at human CCK-BR [1], the “inositol phosphate formation, percent of the CCK-8 induced maximum” value came out at 23%. Also, the “functional classification in CHO cells” value at human CCK-BR [2] is reported as “"true" antagonist”.
In the case of `C[C@](Cc1c[nH]c2ccccc12)(NC(=O)OC1C2CC3CC(C2)CC1C3)C(=O)NC[C@H](NC(=O)/C=C/C(=O)O)c1ccccc1` (stereo partly shown) [PD 136,450], the “inositol phosphate formation, percent of the CCK-8 induced maximum” value on human CCK-BR [1] stood at 43%. The “intrinsic activity in the rat” value in the experiment on gastric acid secretion is on record as “no appreciable intrinsic activity”.
Turning to `Cc1cccc(NC(=O)N[C@@H]2N=C(c3ccccc3)c3ccccc3N(CC(=O)c3ccccc3C)C2=O)c1` [YM022, (R)-1-[2,3-dihydro-1-(2'-methylphenacyl)-2-oxo-5-phenyl-1H-1,4-benzodiazepin-3-yl]-3-(3-methylphenyl)urea], the “effect on inositol phosphate production (intrinsic activity)” value on human CCK-BR [1] is “little, if any, effect”. Also, the “blockade of CCK-8 induced inositol phosphate formation” value on human CCK-BR [3] is “completely blocks”.
